The results in this text go back to US9840498B2, “Substituted quinazolin-4-one derivatives” (NOVARTIS AG, priority 2013, dated 2017).

For orientation: IC50 means the concentration needed to halve the response being measured.

SMILES strings stand for the structures.

PI 3-Kinase Gamma, sequence (P48736 whole entry): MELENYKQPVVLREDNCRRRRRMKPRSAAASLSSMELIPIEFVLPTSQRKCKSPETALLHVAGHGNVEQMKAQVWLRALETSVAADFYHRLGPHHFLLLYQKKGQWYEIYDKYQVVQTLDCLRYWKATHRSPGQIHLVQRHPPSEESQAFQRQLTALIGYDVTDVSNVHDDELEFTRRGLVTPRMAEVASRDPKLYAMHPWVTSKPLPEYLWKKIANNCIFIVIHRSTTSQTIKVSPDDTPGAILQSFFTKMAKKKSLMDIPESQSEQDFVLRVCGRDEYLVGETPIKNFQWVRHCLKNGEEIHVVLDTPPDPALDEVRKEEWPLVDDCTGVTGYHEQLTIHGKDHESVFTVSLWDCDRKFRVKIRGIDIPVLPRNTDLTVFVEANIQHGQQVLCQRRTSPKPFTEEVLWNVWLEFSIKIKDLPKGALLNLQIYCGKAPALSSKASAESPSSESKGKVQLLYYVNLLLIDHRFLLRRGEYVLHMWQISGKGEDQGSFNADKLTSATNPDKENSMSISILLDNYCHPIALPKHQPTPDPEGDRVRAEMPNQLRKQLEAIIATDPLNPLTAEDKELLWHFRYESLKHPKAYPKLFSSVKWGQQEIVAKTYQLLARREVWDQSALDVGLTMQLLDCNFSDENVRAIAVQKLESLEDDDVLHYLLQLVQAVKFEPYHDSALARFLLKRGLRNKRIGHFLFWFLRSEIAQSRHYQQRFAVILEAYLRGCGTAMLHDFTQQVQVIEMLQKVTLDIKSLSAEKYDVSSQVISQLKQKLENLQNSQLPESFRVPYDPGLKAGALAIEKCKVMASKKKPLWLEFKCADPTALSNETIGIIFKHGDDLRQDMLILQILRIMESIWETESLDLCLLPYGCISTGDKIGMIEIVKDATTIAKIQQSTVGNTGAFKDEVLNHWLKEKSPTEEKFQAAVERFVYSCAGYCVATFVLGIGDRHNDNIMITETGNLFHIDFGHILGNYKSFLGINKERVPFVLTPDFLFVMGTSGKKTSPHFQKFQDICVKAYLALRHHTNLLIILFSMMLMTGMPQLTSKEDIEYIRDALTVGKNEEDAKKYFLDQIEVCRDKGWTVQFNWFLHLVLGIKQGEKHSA

The target of this experiment is PI 3-Kinase Gamma (Homo sapiens (Human), UniProt P48736). Kind of experiment: Cellular U937 AKT assay for PI 3-kinase gamma. The class given is cell-based. To be noted: U937 cells, MIP1α-stimulated AKT phosphorylation, read-out: Cell PI3K gamma IC50. As to the method:
The U937 monocyte cell line is maintained in a basal medium of RPMI 1640 supplemented with 10% heat inactivated FCS, 100 U/ml Penicillin, 100 ug/ml streptomycin and 2 mM L-glutamine (Invitrogen). U937 suspension culture is maintained by seeding cells at a density of 0.125×10^6 cells per ml in fresh medium every three or four days. Cells are incubated at 37° C., 5% CO2. […] Before beginning the cell manipulations described below, the MSD (Meso Scale Discovery) assay plate is blocked by addition of 150 ul/well blocking buffer supplied and incubated with shaking for a minimum of one hour at room temperature. All steps of the assay must be performed quickly, with accurately timed incubation periods and observing temperature controls where indicated. […] Falcon tube, counted and centrifuged for eight minutes at 300 g at room temperature. Supernatant is aspirated, the cell pellet resuspended and washed once in HBSS (Hank's Balanced Salt Solution) by centrifugation for eight minutes at 300 g at room temperature. The cell pellet is resuspended in HBSS to a concentration of 4×10^6 per ml, and 100 μL of cell suspension added to each well of a flat-bottomed 96-well tissue culture plate. Assay plates are incubated for 1.5 hours at 37° C., 5% CO2 to allow background AKT phosphorylation to reduce before the compound stimulation step. […] Compound concentrations at this stage are 4-times the final concentration required in the assay plate. Cells are stimulated with compound or HBSS 0.8% DMSO by direct transfer of 50 ul/well from the compound dilution plate. The assay plate containing compound-treated cells is then incubated for 30 minutes at 37° C. A standard plate layout is used for all experiments. Compound-treated cells, in addition to positive control wells (“max MIP1α”), are stimulated with 50 μL per well of 40 ng/ml MIP1α (R&D Systems catalogue number 270-LD, lyophilized stock reconstituted to 50 μg/ml with PBS 0.1% BSA). Negative control wells (“min HBSS”), are stimulated with 50 μl/well of HBSS in the absence of MIP1α. […] Cells are incubated with MIP1α for 3 minutes, at 37° C., 5% CO2. After the three minute stimulation period, the assay plate is kept ice cold at all times. Assay plates are centrifuged for 2 minutes at 300 g, 4° C. and supernatant is removed by gently inverting, and then blotting the plate on tissue. Cells are then washed by gentle addition of 150 μL/well of ice cold HBSS and centrifugation at 300 g, for 5 minutes at 4° C. Supernatant is aspirated and the plate blotted as described above. The plate is placed on ice and cells are immediately treated with 35 μL per well of ice cold lysis buffer, prepared according to the kit instructions (per assay plate, to 5 ml of Tris lysis buffer add 100 μl of 50× protease inhibitor solution and 50 μl of each 100× phosphatase inhibitor solutions I and II). Plates are incubated on ice for 20 minutes before centrifugation at 841 g for 5 minutes, 4° C. Block buffer is aspirated from the MSD plate, and the plate washed four times with 300 μl/well Tris wash buffer. 25 μL of cell lysate is then transferred from the assay plate to the washed MSD plate which is sealed and incubated at room temperature for one hour with shaking. The plate is washed four times with 300 μL per well of Tris wash buffer before addition of 25 μL per well of sulfo-tag anti-total AKT/pAKT detection antibody (60 μl of 50× antibody stock is diluted in 1 ml block buffer mixed with 2 ml wash buffer) and incubated at room temperature for one hour with shaking. The plate is washed four times with 300 μl per well of Tris wash buffer and 150 μl per well of Read buffer is added, taking care to avoid the introduction of bubbles. The plate is immediately read using an MSD SECTOR Imager 6000. Results are exported in Excel and the percentage of phosphorylated AKT is calculated using the equation: % Phosphoprotein=((2*Phospho signal)/(Phospho signal+Total signal))*100. […]
In the case of `Cc1nc(N)nc(N2C[C@@H](O)C[C@H]2c2nc3cccc(-c4cccnc4)c3c(=O)n2-c2ccccc2)c1C#N` [Example 24, 2-Amino-4-((2S,4S)-4-hydroxy-2-(4-oxo-3-phenyl-5-(pyridin-3-yl)-3,4-dihydroquinazolin-2-yl)pyrrolidin-1-yl)-6-methylpyrimidine-5-carbonitrile], the IC50 is 9 nM. With `COc1ncc(-c2c(F)ccc3nc([C@@H]4C[C@H](O)CN4c4nc(N)nc(C)c4C#N)n(-c4ccccc4)c(=O)c23)s1` [Example 9, 2-Amino-4-((2S,4S)-2-(6-fluoro-5-(2-methoxythiazol-5-yl)-4-oxo-3-phenyl-3,4-dihydroquinazolin-2-yl)-4-hydroxypyrrolidin-1-yl)-6-methylpyrimidine-5-carbonitrile], the IC50 was 56 nM. For `COc1ncc(-c2cccc3nc([C@@H]4CCCN4c4ncnc(N)c4C#N)n(-c4ccccc4)c(=O)c23)cn1` [Example 3, (S)-4-Amino-6-(2-(5-(2-methoxypyrimidin-5-yl)-4-oxo-3-phenyl-3,4-dihydroquinazolin-2-yl)pyrrolidin-1-yl)pyrimidine-5-carbonitrile], the IC50 is 430 nM. On to `CO[C@H]1C[C@@H](c2nc3cccc(-c4cnn(C)c4)c3c(=O)n2-c2ccccc2)N(c2nc(N)nc3[nH]cnc23)C1` [Example 11, 2-((2S,4S)-1-(2-Amino-9H-purin-6-yl)-4-methoxypyrrolidin-2-yl)-5-(1-methyl-1H-pyrazol-4-yl)-3-phenylquinazolin-4(3H)-one], for which the IC50 turned out to be 340 nM. For `Cc1nc(N)nc(N2C[C@@H](O)C[C@H]2c2nc3cccc(-c4cnn(C)c4)c3c(=O)n2-c2ccccc2)c1C#N` [Example 16, 2-Amino-4-((2S,4S)-4-hydroxy-2-(5-(1-methyl-1H-pyrazol-4-yl)-4-oxo-3-phenyl-3,4-dihydroquinazolin-2-yl)pyrrolidin-1-yl)-6-methylpyrimidine-5-carbonitrile], the IC50 turned out to be 55 nM.

On to `CCOc1ncc(-c2c(F)ccc3nc([C@@H]4C[C@H](O)CN4c4nc(N)nc(C)c4C#N)n(-c4ccccc4)c(=O)c23)cn1` [Example 29, 2-Amino-4-((2S,4S)-2-(5-(2-ethoxypyrimidin-5-yl)-6-fluoro-4-oxo-3-phenyl-3,4-dihydroquinazolin-2-yl)-4-hydroxypyrrolidin-1-yl)-6-methylpyrimidine-5-carbonitrile], for which the IC50 is 38 nM. Regarding `Cn1cnc(-c2cccc3nc([C@@H]4CCCN4c4ncnc(N)c4C#N)n(-c4ccccc4)c(=O)c23)c1` [Example 15, (S)-4-Amino-6-(2-(5-(1-methyl-1H-imidazol-4-yl)-4-oxo-3-phenyl-3,4-dihydroquinazolin-2-yl)pyrrolidin-1-yl)pyrimidine-5-carbonitrile], the IC50 is above 10000 nM. Take `Cc1nc(N)nc(N2CCC[C@H]2c2nc3cccc(-c4cccnc4)c3c(=O)n2-c2ccccc2)c1C#N` [Example 20, (S)-2-Amino-4-methyl-6-(2-(4-oxo-3-phenyl-5-(pyridin-3-yl)-3,4-dihydroquinazolin-2-yl)pyrrolidin-1-yl)pyrimidine-5-carbonitrile]: the IC50 turned out to be 270 nM.

`N#Cc1c(N)ncnc1N1CCC[C@H]1c1nc2cccc(C#CCO)c2c(=O)n1-c1ccccc1` [Example 33, (S)-4-Amino-6-(2-(5-(3-hydroxyprop-1-yn-1-yl)-4-oxo-3-phenyl-3,4-dihydroquinazolin-2-yl)pyrrolidin-1-yl)pyrimidine-5-carbonitrile]: the IC50 came out at 120 nM. Regarding `COc1cncc(-c2cccc3nc([C@@H]4CCCN4c4nc(N)nc(C)c4C#N)n(-c4ccccc4)c(=O)c23)c1` [Example 18, (S)-2-Amino-4-(2-(5-(5-methoxypyridin-3-yl)-4-oxo-3-phenyl-3,4-dihydroquinazolin-2-yl)pyrrolidin-1-yl)-6-methylpyrimidine-5-carbonitrile], the IC50 is 16 nM.
